# Where two headings read alike, the source gives them in different places.
# Key:
# [1] = tested on: Wnt pathway (Sp5-Luc reporter, TCF/LEF binding sites) in SW480 colon carcinoma cells; assay: Screening assay for Wnt activity: Sp5-Luc reporter gene assay; type: cell-based, human; details: Homo sapiens; for EC50: Sp5-Luc reporter, SW480 cells, 36 to 48 hours;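 for all read-outs here: firefly luciferase luminescence read in stably transduced SW480 cells carrying the Sp5 promoter reporter with eight TCF/LEF sites, compounds given in 0.1% DMSO final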
# Procedure: The screening assay for Wnt activity is described as follows.
# Following incubation, 15 μl of BriteLite Plus luminescence reagent (Perkin Elmer) was added to each well of the 384-well assay plates. The plates were placed on an orbital shaker for 2 min and then luminescence was quantified using the Envision (Perkin Elmer) plate reader.
# [2] = biological target: recombinant DYRK1A kinase (Homo sapiens (Human), UniProt Q13627); assay: DYRK1A kinase assay (Ser/Thr 18 peptide Z-lyte FRET); type: biochemical; details: 30 μM ATP, 1 h room temperature;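 note: Read-out is the coumarin to fluorescein emission ratio, referenced to unphosphorylated (0%) and phosphorylated (100%) Ser/Thr 18 peptide controls, values from dose-response curves by non-linear regression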
# [3] = biological target: recombinant GSK3β kinase (Homo sapiens (Human), UniProt P49841); assay: GSK3β kinase assay (Ser/Thr 09 peptide Z-lyte FRET); type: biochemical; details: 46 μM ATP, 1 h room temperature;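 note: kinase activity read as coumarin to fluorescein emission ratio, 11-point threefold dilutions from 10 µM to 0.0003 µM in duplicate, unphosphorylated and phosphorylated peptide as 0% and 100% controls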
# [4] = tested on: Tau phosphorylation at Ser396 (pSer396); assay: Tau phosphorylation assay (pSer396 ELISA / western blot) in SH-SY5Y cells; type: cell-based, human; details: Homo sapiens, read-out: pSer396 Tau EC50;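 note: EC50 for reduction of Tau pSer396 in lysed cells, measured by colorimetric ELISA or chemiluminescent western blot, both using the same pSer396 antibody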
# [5] = tested on: secreted β-amyloid 40 (Aβ40) peptide; assay: Secreted β-amyloid 40 (Aβ40) peptide in APP overexpressing SH-SY5Y-APP cells; type: cell-based; details: Homo sapiens, overnight (16-18 hours)
# Procedure: Representative compounds were screened using the cell-based assay procedure for secreted β-amyloid 40 (Aβ40) peptide in an APP overexpressing cell line described below.
# SH-SY5Y cells were infected with lentivirus to overexpress amyloid (A4) beta precursor protein (APP), hereafter referred to as the SH-SY5Y-APP cells.
# SH-SY5Y cells were seeded onto 6-well plates at
# The cell assay procedure start 18 h prior to treatment, as SH-SY5Y-APP cells were seeded onto 96-well plates at
# At this time, designated wells were seeded with SH-SY5Y cells that were seeded and treated with puromycin at
# Cells were exposed overnight (16-18 hours) in a 37° C. incubator before supernatant was harvested. […] The original plates with seeded cells were tested for cytotoxicity by measure of adenosine triphosphate (ATP) release by adding CellTiter-Glo® diluted 1:4 in distilled water (G7573, Promega) and transferring lysed cells to a completely black 96-well plate to be read with the Cytation3. Plates containing supernatant were spun down at 1200 g for 10 minutes to remove any cellular debris. Supernatant was then diluted 1:2 with a diluent from V-PLEX Aβ40 Peptide (6E10) Kit and directly tested for secreted Aβ40 peptide (K150SKE, Meso Scale Discovery).
# [6] = tested on: SW480 colon carcinoma cells; assay: Cell viability assay (CellTiter-Glo); type: cell-based, human; details: Homo sapiens; for EC50: 96 h, SW480 cells, CellTiter-Glo, four days incubation
# [7] = tested on: α-smooth muscle actin (αSMA) positive LL29 cells; assay: Inhibition of fibrotic process: αSMA in TGF-β1 treated primary human fibroblasts from IPF patients; type: cell-based; details: Homo sapiens, Fibroblast; for EC50: 96 h, Table 8, LL29 fibroblasts from IPF patients, TGF-β1 20 ng/mL, 4 days, dose-response 10 μM to 0.94 nM; for inhibition at 10 µM: read-out: percent value in parentheses beside EC50 >10 μM;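 for all read-outs here: controls were TGF-β1 stimulated wells with DMSO vehicle (positive) and cells given DMSO alone (negative), cultured in F12 medium with 1% fetal bovine serum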
# [8] = tested on: IL-6; assay: IL-6 inhibition in LPS-stimulated human peripheral blood mononuclear cells (HTRF); type: cell-based; details: Homo sapiens, PBMC; for EC50: Table 9, huPBMCs, LPS 50 ng/mL, 22 hours, dose-response starting from 10 μM; for inhibition at 10 µM: read-out: percent value in parentheses beside EC50 >10 μM;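 for all read-outs here: IL-6 detected by HTRF with an XL665- and Cryptate-labelled anti-IL-6 antibody pair, samples run in duplicate, EC50 obtained from a four-parameter Levenberg-Marquardt curve fit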
# Procedure: After 22 hour incubation, a mixture of anti-IL6 XL665 and anti-IL-6 Cryptate diluted in reconstitution buffer (Catalog #62IL6PEC, Cisbio Inc., Bedford, Mass.) was added to each well. […] All samples were processed in duplicate. […] EC50 was determined using software generated by Dotmatics Limited (Windhill Bishops Stortford Herts, UK) using the Levenberg-Marquardt 4 parameter fitting procedure with finite different gradients.
# [9] = SH-SY5Y cells, overnight (16-18 h) exposure
# [10] = SW480, read-out: percent inhibition at 10 μM
# Sequence of recombinant GSK3β kinase (P49841 whole entry): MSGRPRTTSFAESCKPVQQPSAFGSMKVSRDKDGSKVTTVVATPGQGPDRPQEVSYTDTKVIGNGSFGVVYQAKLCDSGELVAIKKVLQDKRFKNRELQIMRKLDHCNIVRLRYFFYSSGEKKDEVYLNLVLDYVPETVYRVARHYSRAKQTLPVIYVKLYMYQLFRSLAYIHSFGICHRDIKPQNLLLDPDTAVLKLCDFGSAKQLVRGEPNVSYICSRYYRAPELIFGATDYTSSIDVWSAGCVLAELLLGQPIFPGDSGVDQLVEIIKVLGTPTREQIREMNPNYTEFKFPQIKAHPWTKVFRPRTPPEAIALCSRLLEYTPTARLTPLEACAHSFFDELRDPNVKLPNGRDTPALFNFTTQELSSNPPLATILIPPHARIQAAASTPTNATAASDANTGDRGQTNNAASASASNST
Compound,EC50 [1] [nM],EC50 [2] [nM],EC50 [3] [nM],"EC50 [4, 9] [nM]",IC50 [5] [nM],EC50 [6] [nM],EC50 [7] [nM],EC50 [8] [nM],inhibition at 10 µM [7] [%],"inhibition at 10 µM [1, 10] [%]","inhibition at 10 µM [6, 10] [%]",inhibition at 10 µM [8] [%],EC50 ([4]; SH-SY5Y) [nM]
"Cn1cc(-c2ccc3cnc(NC(=O)CN4CCCCC4)cc3c2)cn1 [Compound 115, N-(6-(1-Methyl-1H-pyrazol-4-yl)isoquinolin-3-yl)-2-(piperidin-1-yl) acetamide]",2400,3.4,30,311,956,3500,605,1910,–,–,–,–,–
"Cn1cncc1-c1ccc2cnc(NC(=O)C3CCC(F)(F)CC3)cc2c1 [Compound 263, 4,4-Difluoro-N-(6-(1-methyl-1H-imidazol-5-yl)isoquinolin-3-yl) cyclohexanecarboxamide]",1300,1.3,18,119,5300,1290,134,451,–,–,–,–,–
"Cn1cc(-c2ccc3cnc(NC(=O)C4CC4)cc3c2)cn1 [Compound 1, N-(6-(1-Methyl-1H-pyrazol-4-yl)isoquinolin-3-yl)cyclopropanecarboxamide]",650,4,8,149,3960,130,135,338,–,–,–,–,–
"Cn1cc(-c2ccc3cnc(NC(=O)C4CCN(CC(C)(C)F)CC4)cc3c2)cn1 [Compound 85, 1-(2-Fluoro-2-methylpropyl)-N-(6-(1-methyl-1H-pyrazol-4-yl)isoquinolin-3-yl)piperidine-4-carboxamide]",1200,1.4,29,392,1300,1640,97,1150,–,–,–,–,–
"Cn1cc(-c2ccc3cnc(NC(=O)C4CCN(CC(F)F)CC4)cc3c2)cn1 [Compound 84, 1-(2,2-Difluoroethyl)-N-(6-(1-methyl-1H-pyrazol-4-yl)isoquinolin-3-yl) piperidine-4-carboxamide]",1900,1.3,20,454,4400,1950,148,2460,–,–,–,–,–
"Cn1cc(-c2ccc3cnc(NC(=O)C4CCN(CC(C)(C)C)CC4)cc3c2)cn1 [Compound 78, N-(6-(1-Methyl-1H-pyrazol-4-yl)isoquinolin-3-yl)-1-neopentylpiperidine-4-carboxamide]",1000,4.7,63,265,889,1840,108,2940,–,–,–,–,–
"Cn1cc(-c2ccc3cnc(NC(=O)[C@@H]4CCCNC4)cc3c2)cn1 [Compound 111, (R)—N-(6-(1-Methyl-1H-pyrazol-4-yl)isoquinolin-3-yl)piperidine-3-carboxamide]",743,3.9,40,597,272,526,280,–,–,–,–,–,–
"Cn1cc(-c2ccc3cnc(NC(=O)C4CCN(CCC(F)(F)F)CC4)cc3c2)nn1 [Compound 271, N-(6-(1-methyl-1H-1,2,3-triazol-4-yl)isoquinolin-3-yl)-1-(3,3,3-trifluoropropyl)piperidine-4-carboxamide]",1720,2.1,3,124,4600,2960,64,3080,–,–,–,–,–
"Cn1nncc1-c1ccc2cnc(NC(=O)C3CCN(CCC(F)(F)F)CC3)cc2c1 [Compound 248, N-(6-(1-Methyl-1H-1,2,3-triazol-5-yl)isoquinolin-3-yl)-1-(3,3,3-trifluoropropyl)piperidine-4-carboxamide]",> 10000,37.4,266,905,> 10000,> 10000,7920,9730,–,–,–,–,–
"Cc1ncc(-c2ccc3cnc(NC(=O)[C@@H]4CCCO4)cc3c2)n1C [Compound 188, (S)—N-(6-(1,2-Dimethyl-1H-imidazol-5-yl)isoquinolin-3-yl)tetrahydrofuran-2-carboxamide]",> 10000,28.6,265,4220,–,> 10000,> 10000,9980,12.4,–,–,–,–
"C[C@@H](C(=O)Nc1cc2cc(-c3cnn(C)c3)ccc2cn1)N1CCOCC1 [Compound 348, (S)—N-(6-(1-Methyl-1H-pyrazol-4-yl)isoquinolin-3-yl)-2-morpholinopropanamide]",> 10000,77.5,221,2000,–,> 10000,1460,> 10000,–,36.9,22.4,19,–
"CC(C(=O)Nc1cc2cc(-c3cnn(C)c3)ccc2cn1)N1CCCC1 (centres unmarked) [Compound 288, N-(6-(1-Methyl-1H-pyrazol-4-yl)isoquinolin-3-yl)-2-(pyrrolidin-1-yl) propanamide]",1200,27.3,20,159,–,2660,532,1240,–,–,–,–,–
"Cn1cc(-c2ccc3cnc(NC(=O)CN4C5CCC4CC5)cc3c2)cn1 [Compound 292, 2-(7-Azabicyclo[2.2.1]heptan-7-yl)-N-(6-(1-methyl-1H-pyrazol-4-yl)isoquinolin-3-yl)acetamide]",3380,7.8,173,–,–,2820,2220,1120,–,–,–,–,1350
"Cn1cc(-c2ccc3cnc(NC(=O)CN4CCC5(CC4)CC5)cc3c2)cn1 [Compound 296, N-(6-(1-Methyl-1H-pyrazol-4-yl)isoquinolin-3-yl)-2-(6-azaspiro[2.5]octan-6-yl)acetamide]",3480,14.3,80,978,–,3460,1960,1580,–,–,–,–,–
"Cn1cc(-c2ccc3cnc(NC(=O)C4CCN(C5CCOCC5)CC4)cc3c2)cn1 [Compound 332, N-(6-(1-Methyl-1H-pyrazol-4-yl)isoquinolin-3-yl)-1-(tetrahydro-2H-pyran-4-yl)piperidine-4-carboxamide]",662,3.5,39,249,–,1000,291,1070,–,–,–,–,–
"Cc1nnc(-c2ccc3cnc(NC(=O)C4CCN(CCF)CC4)cc3c2)s1 [Compound 900, 1-(2-Fluoroethyl)-N-(6-(5-methyl-1,3,4-thiadiazol-2-yl)isoquinolin-3-yl) piperidine-4-carboxamide]",1010,2.9,11,180,–,3880,449,9860,–,–,–,–,–
"CN1CCC[C@@H]1C(=O)Nc1cc2cc(-c3cnn(C)c3)ccc2cn1 [Compound 363, (R)-1-Methyl-N-(6-(1-methyl-1H-pyrazol-4-yl)isoquinolin-3-yl)pyrrolidine-2-carboxamide]",2360,50.3,35,406,–,3060,387,1220,–,–,–,–,–
"Cn1cc(-c2ccc3cnc(NC(=O)CN4CCN(C5CC5)CC4)cc3c2)cn1 [Compound 353, 2-(4-Cyclopropylpiperazin-1-yl)-N-(6-(1-methyl-1H-pyrazol-4-yl)isoquinolin-3-yl)acetamide]",5710,8.6,29,724,–,8220,> 10000,> 10000,31.7,–,–,39.9,–
"[2H]C([2H])([2H])n1cc(-c2ccc3cnc(NC(=O)CN4CCCCC4)cc3c2)cn1 [Compound 306, N-(6-(1-(Methyl-d3)-1H-pyrazol-4-yl)isoquinolin-3-yl)-2-(piperidin-1-yl) acetamide]",3700,7.2,66,592,–,3200,282,2520,–,–,–,–,–
"CC1CCN(CC(=O)Nc2cc3cc(-c4cnn(C)c4)ccc3cn2)CC1 [Compound 293, N-(6-(1-Methyl-1H-pyrazol-4-yl)isoquinolin-3-yl)-2-(4-methylpiperidin-1-yl)acetamide]",3220,5,59,668,–,2860,7770,1170,–,–,–,–,–
"CN1CCC(N2CCC(C(=O)Nc3cc4cc(-c5cnco5)ccc4cn3)CC2)CC1 [Compound 978, 1′-Methyl-N-(6-(oxazol-5-yl)isoquinolin-3-yl)-[1,4′-bipiperidine]-4-carboxamide]",2220,3.9,220,274,–,1580,722,3360,–,–,–,–,–
